This passage reports IC50 results from US6989399B2, “Antiamyloid phenylsulfonamides: N-alkanol derivatives” (Bristol-Myers Squibb Company, priority 2002, dated 2006).

Usually IC50 stands for the concentration that gives 50% inhibition.

Some results are limits rather than exact numbers.

In this experiment the target is T1, γ-secretase (Homo sapiens, UniProt P49768).
T1 construct: The endogenous γ-secretase present in the isolated membranes; endogenous in cells; host or cells: isolated membrane fraction of human-derived cell lines such as HeLa and H4, stably transfected with β-APP substrate
The experiment in a line: Isolated membrane γ-secretase assay, time-resolved fluorescence detection of Aβ. The class given is biochemical. The note with it: isolated membranes, about 90 minutes at 37 degrees C; read-out: Activity (IC50), Inhibition of β-Amyloid Peptide. The source says:
The detection of γ-secretase activity requires assays capable of reliable, accurate and expedient detection of γ-secretase cleavage products, particularly Aβ. An isolated membrane fraction that contains functionally active γ-secretase and β-APP substrates can generate γ-secretase cleavage products including Aβ (Roberts et al., WO 01/75435; Fechteler et al., Patent Application No. DE 99-19941039 19990828; Shearman et al., Biochemistry, 39, p. 8698–8704 (2000); Zhang et al., Biochemistry, 40, p. 5049-5055 (2001)). An isolated membrane fraction can be prepared from human derived cell lines such as HeLa and H4 which have been transfected with wild type or mutant forms of β-APP or a human alkaline phosphatase β-APP fusion construct, and stably express high levels of γ-secretase substrates. The endogenous γ-secretase present in the isolated membranes prepared at 0–4 degrees C. cleaves the β-APP substrates when the membranes are shifted from 0–4 to 37 degrees C. […] 325–327 (1992), or by a preferred method using time-resolved fluorescence of the homogeneous sample containing membranes and Aβ (Roberts et al., WO 01/75435; Shearman et al., Biochemistry, 39, p. 8698–8704 (2000)). The Aβ present in a homogeneous sample containing membranes can be detected by time-resolved fluorescence with two antibodies that recognize different epitopes of Aβ. One of the antibodies recognizes an epitope that is present in Aβ but not present in the precursor fragments; preferably the antibody binds the carboxyl terminus of Aβ generated by the γ-secretase cleavage. The second antibody binds to any other epitope present on Aβ. For example, antibodies that bind the N-terminal region (e.g., 26D6-B2-B3® SIBIA Neurosciences, La Jolla, Calif.) or bind the C-terminal end (e.g., 9S3.2® antibody, Biosolutions, Newark, Del.) of the Aβ peptide are known. The antibodies are labeled with a pair of fluorescent adducts that transfer fluorescent energy when the adducts are brought in close proximity as a result of binding to the N- and C-terminal ends or regions of Aβ. A lack of fluorescence is indicative of the absence of cleavage products, resulting from inhibition of γ-secretase. The isolated membrane assay can be used to identify candidate agents that inhibit the activity of γ-secretase cleavage and Aβ production.
A typical membrane-based assay requires 45 μg membrane protein per well in a 96- or 384-well format. Membranes in a neutral buffer are combined with the test compound and shifted from 0–4 to 37 degrees C. Test agents may typically consist of synthetic compounds, secondary metabolites from bacterial or fungal fermentation extracts, or extracts from plant or marine samples. All synthetic agents are initially screened at doses ranging from 10–100 μM or in the case of extracts at sufficient dilution to minimize cytotoxicity. Incubation of the membranes with the test agent will continue for approximately 90 minutes at which time fluorescence labeled antibodies are added to each well for Aβ quantitation. The time-resolved fluorescence detection and quantitation of Aβ is described elsewhere (Roberts et al., WO 01/75435; Shearman et al., Biochemistry, 39, p. 8698–8704 (2000)). Results are obtained by analysis of the plate in a fluorescence plate reader and comparison to the mock treated membranes and samples in which known amounts of Aβ were added to construct a standard concentration curve. A positive acting compound is one that inhibits the Aβ relative to the control sample by at least 50% at the initial tested concentration. If a compound is found to be active then a dose response experiment is performed to determine the lowest dose of compound necessary to elicit the inhibition of the production of Aβ.
The Formula I compounds were tested in the assay described above and found to be active as inhibitors of γ-secretase. […]
Turning to `CC(O)C[C@@H](C)N(c1cc(Cl)ccc1Cl)S(=O)(=O)c1ccc(Cl)cc1` (mixture of isomers) [Example 7], the IC50 is 50 to 200 nM. The result for `CC(C)C(O)[C@@H](C)N(c1cc(Cl)ccc1Cl)S(=O)(=O)c1ccc(Cl)cc1` (mixture of isomers) [Example 10] reads 200 to 5000 nM; that for `CC(C)CC(O)[C@@H](C)N(c1cc(Cl)ccc1Cl)S(=O)(=O)c1ccc(Cl)cc1` (mixture of isomers) [Example 11], 200 to 5000 nM; that for `C[C@H](C(O)C1CCCC1)N(c1cc(Cl)ccc1Cl)S(=O)(=O)c1ccc(Cl)cc1` (mixture of isomers) [Example 12], 200 to 5000 nM. The value for `C[C@H](C(O)C1CCCCC1)N(c1cc(Cl)ccc1Cl)S(=O)(=O)c1ccc(Cl)cc1` (mixture of isomers) [Example 13] was 200 to 5000 nM.

Consider `C[C@H](C(O)c1ccccc1)N(c1cc(Cl)ccc1Cl)S(=O)(=O)c1ccc(Cl)cc1` (mixture of isomers) [Example 14], for which the half-maximal inhibitory concentration (IC50) fell in the range of 200 to 5000 nM.

In the case of `COc1ccc(C(O)[C@@H](C)N(c2cc(Cl)ccc2F)S(=O)(=O)c2ccc(Cl)cc2)cc1` (mixture of isomers) [Example 22], the IC50 was 200 to 5000 nM. For the molecule `C[C@H](C(O)CC(=O)O)N(c1cc(Cl)ccc1F)S(=O)(=O)c1ccc(Cl)cc1` (mixture of isomers) [Example 24], the IC50 fell in the range of 50 to 200 nM.

Turning to `CC(C)CC(O)C[C@@H](C)N(c1cc(Cl)ccc1Cl)S(=O)(=O)c1ccc(Cl)cc1` (mixture of isomers) [Example 28], the 50% inhibitory concentration (IC50) lay within 50 to 200 nM.

In the case of `C=CCCC(O)C[C@@H](C)N(c1cc(Cl)ccc1Cl)S(=O)(=O)c1ccc(Cl)cc1` (mixture of isomers) [Example 29], the IC50 is 50 to 200 nM. With `C[C@H](CC(O)c1ccccc1)N(c1cc(Cl)ccc1Cl)S(=O)(=O)c1ccc(Cl)cc1` (mixture of isomers) [Example 30], the IC50 was 50 to 200 nM. For `C=CCC(O)[C@@H](C)N(c1cc(Cl)ccc1Cl)S(=O)(=O)c1ccc(Cl)cc1` (single isomer, unassigned) [Example 5A], the IC50 lay in the range of 50 to 200 nM.

For `C=CCC(O)[C@@H](C)N(c1cc(Cl)ccc1Cl)S(=O)(=O)c1ccc(Cl)cc1` (single isomer, unassigned) [Example 5B], the IC50 fell in the range of 200 to 5000 nM. Take `CCCC(O)[C@@H](C)N(c1cc(Cl)ccc1Cl)S(=O)(=O)c1ccc(Cl)cc1` (single isomer, unassigned) [Example 6A]: the IC50 lay within 50 to 200 nM. On to `CCCC(O)[C@@H](C)N(c1cc(Cl)ccc1Cl)S(=O)(=O)c1ccc(Cl)cc1` (single isomer, unassigned) [Example 6B], for which the IC50 was 200 to 5000 nM. The result for `CCCC(=O)OC(CCC)[C@@H](C)N(c1cc(Cl)ccc1F)S(=O)(=O)c1ccc(Cl)cc1` (single isomer, unassigned) [Example 8] reads 50 to 200 nM; that for `CC(O)C(C)N(c1cc(Cl)ccc1Cl)S(=O)(=O)c1ccc(Cl)cc1` (single isomer, unassigned) [Example 9A], 50 to 200 nM; that for `Cc1cc(C)c(C(O)[C@@H](C)N(c2cc(Cl)ccc2Cl)S(=O)(=O)c2ccc(Cl)cc2)c(C)c1` (single isomer, unassigned) [Example 16A], 200 to 5000 nM.

For the molecule `CC(C(O)CCc1ccccc1)N(c1cc(Cl)ccc1Cl)S(=O)(=O)c1ccc(Cl)cc1` (single isomer, unassigned) [Example 17A], the IC50 was 200 to 5000 nM. Take `CC(C(O)CCc1ccccc1)N(c1cc(Cl)ccc1Cl)S(=O)(=O)c1ccc(Cl)cc1` (single isomer, unassigned) [Example 17B]: the IC50 was 200 to 5000 nM. Turning to `C=CCCC(O)C(C)N(c1cc(Cl)ccc1Cl)S(=O)(=O)c1ccc(Cl)cc1` (single isomer, unassigned) [Example 18A], the IC50 lay within 50 to 200 nM. The value for `C=CCCC(O)C(C)N(c1cc(Cl)ccc1Cl)S(=O)(=O)c1ccc(Cl)cc1` (single isomer, unassigned) [Example 18B] was 200 to 5000 nM; that for `CC(O)C(C)N(c1cc(Cl)ccc1F)S(=O)(=O)c1ccc(Cl)cc1` (single isomer, unassigned) [Example 19A] was 50 to 200 nM. As for `C=CCCC(O)C(C)N(c1cc(Cl)ccc1F)S(=O)(=O)c1ccc(Cl)cc1` (single isomer, unassigned) [Example 20A], the IC50 was 50 to 200 nM. The result for `C=CCCC(O)C(C)N(c1cc(Cl)ccc1F)S(=O)(=O)c1ccc(Cl)cc1` (single isomer, unassigned) [Example 20B] reads 200 to 5000 nM; that for `C#CCC(O)[C@@H](C)N(c1cc(Cl)ccc1F)S(=O)(=O)c1ccc(Cl)cc1` (single isomer, unassigned) [Example 21A], less than 50 nM. The result for `C#CCC(O)[C@@H](C)N(c1cc(Cl)ccc1F)S(=O)(=O)c1ccc(Cl)cc1` (single isomer, unassigned) [Example 21B] reads less than 50 nM; that for `C=CCC(O)[C@@H](C)N(c1cc(Cl)ccc1F)S(=O)(=O)c1ccc(Cl)cc1` (single isomer, unassigned) [Example 23A], less than 50 nM. The value for `CCCC(O)[C@@H](C)N(c1cc(Cl)ccc1F)S(=O)(=O)c1ccc(Cl)cc1` (single isomer, unassigned) [Example 27A] was less than 50 nM.
